Source: US5665700A, “Pharmaceutical formulations” (Skua Investments Limited, priority 1994, dated 1997)

Test system: not given
Test: not given
Conditions: in vivo; cited from earlier work

**Q.** With Sorbitan monooleate as the substance, how does the LD50 read?
**A.** Its LD50 is > 40000 mg/kg.

**Q.** For POE(2) oleyl ether, which LD50 is on record?
**A.** The LD50 was 25000 mg/kg.

**Q.** With POE(4) lauryl ether as the substance, how does the LD50 read?
**A.** The LD50 was 9000 mg/kg.

**Q.** With Sorbitan monopalmitate as the substance, how does the LD50 read?
**A.** The LD50 was > 16000 mg/kg.

**Q.** Which LD50 does the source give for Sorbitan trioleate here?
**A.** Its LD50 is > 40000 mg/kg.

**Q.** Which LD50 does the source give for Sorbitan monostearate here?
**A.** The LD50 was 31000 mg/kg.

**Q.** For POE(23) lauryl ether, which LD50 is on record?
**A.** The LD50 was 9000 mg/kg.

**Q.** Which LD50 does the source give for Sorbitan tristearate here?
**A.** The LD50 was > 16000 mg/kg.

**Q.** For Sorbitan monolaurate, which LD50 is on record?
**A.** Its LD50 is 41000 mg/kg.

**Q.** With POE(2) stearyl ether as the substance, how does the LD50 read?
**A.** The LD50 was > 25000 mg/kg.

**Q.** For POE(2) cetyl ether, which LD50 is on record?
**A.** The LD50 was 22000 mg/kg.

**Q.** With POE(4) sorbitan monostearate as the substance, how does the LD50 read?
**A.** The LD50 was > 40000 mg/kg.

**Q.** With POE(5) sorbitan monooleate as the substance, how does the LD50 read?
**A.** The LD50 was > 37000 mg/kg.

Test system: reticulocyte counts
Test: Oral EPO study in normal male volunteers: reticulocyte counts
Type: in vivo, human
Conditions: Study Day 4, 10 IU/Kg intravenous infusion
Experimental: (§1) Eight healthy, normal male volunteers participated in this study. After overnight fasting, on Study Day 1 the subjects received medication as follows:
(§2) Blood samples were collected at time 0, 0.5, 1, 2, 3, 4, 6, 10 and 14 hours after the medication; reticulocyte counts (%) were made and plasma EPO levels were measured by radioimmunoassay.
(§3) On Day 2 and Day 3, each subject was given the assigned coded study medications at 08:00 a.m., 14:00 p.m. and 22:00 p.m. and, after an overnight fast, on Study Day 4, each subject was examined again after having been given the study medications as above.

**Q.** Which Reticulocyte counts does the source give for Erythropoietin [EPO] here?
**A.** Its Reticulocyte counts is “increased”.

Test system: not listed separately
Test: Oral EPO study in normal male volunteers: plasma EPO levels by radioimmunoassay
Type: in vivo, human
Conditions: Study Day 1, 10 IU/kg intravenous infusion
Experimental: as §1, §2, §3

**Q.** For Erythropoietin [EPO], which “plasma RIA-measured EPO levels” value is on record?
**A.** The value was “markedly increased”.
